# In patent publication USRE48711E1, “Apoptosis signal-regulating kinase inhibitors” (Gilead Sciences, Inc., priority 2009, dated 2021):
# Biological target: ASK1 (Apoptosis Signal-Regulating Kinase 1) (Homo sapiens (Human), UniProt Q99683)
# Assay: ASK1 (Apoptosis Signal-Regulating Kinase 1) TR-FRET Kinase Assay (Biochemical IC50)
# Conditions: TR-FRET, biotin-MBP substrate, 20 min pre-incubation, ATP added as 300 μM solution
# Experimental: The ability of compounds to inhibit ASK1 kinase activity was determined using a time resolved fluorescence resonance energy transfer [TR-FRET] assay utilizing biotinylated myelin basic protein [biotin-MBP] as the protein substrate. […] The enzyme was allowed to pre-incubate with compound for 20 minutes prior to initiating the kinase reaction with the addition of 5 μL/well 300 μM ATP in buffer (50 mM MOPS, pH 7.0, 5 mM Mg-acetate, 1 mM DTT, 5% DMSO) using the Decrac Fluidics Equator. The kinase reactions were allowed to proceed for 20 minutes at ambient temperature and were subsequently stopped with the addition of 5 μL/well 25 mM EDTA using the Deerac Fluidics Equator. […] The TR-FRET signal was then read on a Perkin. Elmer Envision plate reader after incubating the plates at ambient temperature for 2 hours.
# Sequence of ASK1 (Apoptosis Signal-Regulating Kinase 1) (Q99683 649-946): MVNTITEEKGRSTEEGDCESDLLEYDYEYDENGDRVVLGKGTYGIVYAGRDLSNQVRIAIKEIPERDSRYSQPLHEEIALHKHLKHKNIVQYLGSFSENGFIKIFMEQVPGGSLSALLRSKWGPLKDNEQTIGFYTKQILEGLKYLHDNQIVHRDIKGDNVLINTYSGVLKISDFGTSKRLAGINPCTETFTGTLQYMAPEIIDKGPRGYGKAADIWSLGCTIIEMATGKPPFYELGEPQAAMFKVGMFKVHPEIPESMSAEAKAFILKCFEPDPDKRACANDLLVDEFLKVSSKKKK
row,SMILES,IC50 [nM]
1,"COc1ncccc1-c1ccnc(C(=O)Nc2cccc(-c3nncn3C3CC3)c2)c1 [Example 67, N-(3-(4-cyclopropyl-4H-1,2,4-triazol-3-yl)phenyl)-2-methoxy-3,4′-bipyridine-2′-carboxamide]",60
2,"CC(C)c1cn(-c2ccnc(C(=O)Nc3cccc(-c4nncn4C4CC4)c3)c2)cn1 [Example 163, N-(3-(4-cyclopropyl-4H-1,2,4-triazol-3-yl)phenyl)-4-(4-isopropyl-1H-imidazol-1-yl)picolinamide]",4
3,"O=C(Nc1cccc(-c2nncn2C2CC2)c1)c1cc(-c2cnc3cccnc3c2)ccn1 [Example 190, N-(3-(4-cyclopropyl-4H-1,2,4-triazol-3-yl)phenyl)-4-(1,5-naphthyridin-3-yl)picolinamide]",13
4,"Cc1c(C(=O)O)ncn1-c1cccc(C(=O)Nc2cccc(-c3nncn3C3CC3)n2)c1 [Example 213, 1-(3-(6-(4-cyclopropyl-4H-1,2,4-triazol-3-yl)pyridin-2-ylcarbamoyl)phenyl)-5-methyl-1H-imidazole-4-carboxylic acid]",11
5,"Cc1nc(C2CC2)cn1-c1ccnc(C(=O)Nc2cccc(-c3nncn3C3CC3)n2)c1 [Example 183, 4-(4-cyclopropyl-2-methyl-1H-imidazol-1-yl)-N-(6-(4-cyclopropyl-4H-1,2,4-triazol-3-yl)pyridin-2-yl)picolinamide]",8
6,"O=C(Nc1cccc(-c2nncn2C2CC2)c1)c1cc(-c2ccc(OC3CC3)nc2)ccn1 [Example 104, 6-cyclopropoxy-N-(3-(4-cyclopropyl-4H-1,2,4-triazol-3-yl)phenyl)-3,4′-bipyridine-2′-carboxamide]",12
7,"O=C(Nc1cccc(-c2nncn2C2CC2)c1)c1cc(-n2cnc3ncccc32)ccn1 [Example 81, N-(3-(4-cyclopropyl-4H-1,2,4-triazol-3-yl)phenyl)-4-(1H-imidazo[4,5-b]pyridin-1-yl)picolinamide]",16
8,"Cc1nccn1-c1ccnc(C(=O)Nc2cccc(-c3nncn3C3CC3)c2)c1 [Example 41, N-(3-(4-cyclopropyl-4H-1,2,4-triazol-3-yl)phenyl)-4-(2-methyl-1H-imidazol-1-yl)picolinamide]",48
9,"O=C(Nc1cccc(-c2nncn2C2CC2)c1)c1cc(-c2cnc3ccccc3c2)ccn1 [Example 84, N-(3-(4-cyclopropyl-4H-1,2,4-triazol-3-yl)phenyl)-4-(quinolin-3-yl)picolinamide]",13
10,"CC(O)c1nnc(-c2ccnc(C(=O)Nc3cccc(-c4nncn4C4CC4)c3)c2)o1 (stereo not drawn) [Example 252, N-(3-(4-cyclopropyl-4H-1,2,4-triazol-3-yl)phenyl)-4-(5-(1-hydroxyethyl)-1,3,4-oxadiazol-2-yl)picolinamide]",3410
11,"C[C@@H](c1ccccc1)n1cnnc1-c1cccc(NC(=O)c2cccc(-n3cnc(C4CC4)c3)c2)n1 [Example 214, (S)-3-(4-cyclopropyl-1H-imidazol-1-yl)-N-(6-(4-(1-phenylethyl)-4H-1,2,4-triazol-3-yl)pyridin-2-yl)benzamide]",159
12,"CC(c1ccccc1)n1cnnc1-c1cccc(NC(=O)c2cc(-n3cnc(C4CC4)c3)ccn2)c1 (stereo not drawn) [Example 186, 4-(4-cyclopropyl-1H-imidazol-1-yl)-N-(3-(4-(1-phenylethyl)-4H-1,2,4-triazol-3-yl)phenyl)picolinamide]",30
13,"Cn1c(-c2ccnc(C(=O)Nc3cccc(-c4nncn4C4CC4)c3)c2)nnc1C1CC1 [Example 255, 4-(5-cyclopropyl-4-methyl-4H-1,2,4-triazol-3-yl)-N-(3-(4-cyclopropyl-4H-1,2,4-triazol-3-yl)phenyl)picolinamide]",685
14,"O=C(Nc1cccc(-c2nncn2C2CC2)c1)c1cc(-c2cnc(C3CC3)cn2)ccn1 [Example 133, N-(3-(4-cyclopropyl-4H-1,2,4-triazol-3-yl)phenyl)-4-(5-cyclopropylpyrazin-2-yl)picolinamide]",10
15,"C[C@H](n1cnnc1-c1cccc(NC(=O)c2cc(-c3ccc(C4CC4)nc3)ccn2)c1)C(C)(C)C [Example 242, (S)-6-cyclopropyl-N-(3-(4-(3,3-dimethylbutan-2-yl)-4H-1,2,4-triazol-3-yl)phenyl)-3,4′-bipyridine-2′-carboxamide]",1130
16,"CC(CN1CCCC1)n1cnnc1-c1cccc(NC(=O)c2cc(-c3ccc(C4CC4)nc3)ccn2)n1 (stereo not drawn) [Example 245, 6-cyclopropyl-N-(6-(4-(1-(pyrrolidin-1-yl)propan-2-yl)-4H-1,2,4-triazol-3-yl)pyridin-2-yl)-3,4′-bipyridine-2′-carboxamide]",36
17,"COc1cncc(-c2ccnc(C(=O)Nc3cccc(-c4nncn4C4CC4)c3)c2)c1 [Example 71, N-(3-(4-cyclopropyl-4H-1,2,4-triazol-3-yl)phenyl)-5-methoxy-3,4′-bipyridine-2′-carboxamide]",17
18,"O=C(Nc1cccc(-c2nncn2C2CC2c2ccccc2)c1)c1cc(-c2ccc(C3CC3)nc2)ccn1 (stereo not drawn) [Example 267, 6-cyclopropyl-N-(3-(4-(2-phenylcyclopropyl)-4H-1,2,4-triazol-3-yl)phenyl)-3,4′-bipyridine-2′-carboxamide]",425

row,SMILES,IC50 [nM]
1,"O=C(Nc1cccc(-c2nncn2C2CC2)c1)c1cc(-c2cnc3scnn23)ccn1 [Example 121, N-(3-(4-cyclopropyl-4H-1,2,4-triazol-3-yl)phenyl)-4-(imidazo[2,1-b][1,3,4]thiadiazol-5-yl)picolinamide]",47
2,"NC(=O)CCn1cnnc1-c1cccc(NC(=O)c2cc(-c3cccnc3)ccn2)c1 [Example 16, N-(3-(4-(3-amino-3-oxopropyl)-4H-1,2,4-triazol-3-yl)phenyl)-3,4′-bipyridine-2′-carboxamide]",114
3,"O=C(Nc1cccc(-c2nncn2C2CC2)n1)c1cc(F)cc(-n2cnc(C3CC3)c2)c1 [Example 205, 3-(4-cyclopropyl-1H-imidazol-1-yl)-N-(6-(4-cyclopropyl-4H-1,2,4-triazol-3-yl)pyridin-2-yl)-5-fluorobenzamide]",9
4,"O=C(Nc1cccc(-c2nncn2C2CC2)c1)c1cc(-c2cnc(C3CC3)nc2)ccn1 [Example 123, N-(3-(4-cyclopropyl-4H-1,2,4-triazol-3-yl)phenyl)-4-(2-cyclopropylpyrimidin-5-yl)picolinamide]",10
5,"COc1ccc(-c2ccnc(C(=O)Nc3cccc(-c4nncn4C4CC4)c3)c2)cn1 [Example 21, N-(3-(4-cyclopropyl-4H-1,2,4-triazol-3-yl)phenyl)-6-methoxy-3,4′-bipyridine-2′-carboxamide]",12
6,"O=C(Nc1cccc(-c2nncn2C2CC2)c1)c1cc(-c2ccc(-c3ccc(Cl)nc3)nc2)ccn1 [Example 70, 6-Chloro-[3,2′:5′,4′]terpyridine-2″-carboxylic acid [3-(4-cyclopropyl-4H-[1,2,4]triazol-3-yl)-phenyl]-amide]",106
7,"O=C(Nc1cccc(-c2nncn2C2CC2)c1F)c1cc(-c2ccc(C3CC3)nc2)ccn1 [Example 155, 6-cyclopropyl-N-(3-(4-cyclopropyl-4H-1,2,4-triazol-3-yl)-2-fluorophenyl)-3,4′-bipyridine-2′-carboxamide]",10
8,"CC(C)(C)Cc1ccc(-c2ccnc(C(=O)Nc3cccc(-c4nncn4C4CC4)c3)c2)cn1 [Example 115, N-(3-(4-cyclopropyl-4H-1,2,4-triazol-3-yl)phenyl)-6-neopentyl-3,4′-bipyridine-2′-carboxamide]",15
9,"O=C(Nc1cccc(-c2nncn2C2CC2)c1)c1cc(-n2cnc(-c3ccccc3)c2)ccn1 [Example 38, N-(3-(4-cyclopropyl-4H-1,2,4-triazol-3-yl)phenyl)-4-(4-phenyl-1H-imidazol-1-yl)picolinamide]",17
10,"CC(C)[C@H](C)n1cnnc1-c1cccc(NC(=O)c2cc(-n3cnc(C4CC4)c3)ccn2)c1 [Example 264, (S)-4-(4-cyclopropyl-1H-imidazol-1-yl)-N-(3-(4-(3-methylbutan-2-yl)-4H-1,2,4-triazol-3-yl)phenyl)picolinamide]",23
11,"CCc1ccc(-c2ccnc(C(=O)Nc3ccc(F)c(-c4nncn4C4CC4)c3)c2)cn1 [Example 148, N-(3-(4-cyclopropyl-4H-1,2,4-triazol-3-yl)-4-fluorophenyl)-6-ethyl-3,4′-bipyridine-2′-carboxamide]",56
12,"CCc1ccc(-c2ccnc(C(=O)Nc3cccc(-c4nncn4C4CC4)c3)c2)cn1 [Example 106, N-(3-(4-cyclopropyl-4H-1,2,4-triazol-3-yl)phenyl)-6-ethyl-3,4′-bipyridine-2′-carboxamide]",8
13,"O=C(Nc1cccc(-c2nncn2C2CC2)c1)c1cc(-c2nc(C3CC3)no2)ccn1 [Example 254, 4-(3-cyclopropyl-1,2,4-oxadiazol-5-yl)-N-(3-(4-cyclopropyl-4H-1,2,4-triazol-3-yl)phenyl)picolinamide]",1270
14,"CC(C)(O)c1ccc(-c2ccnc(C(=O)Nc3cccc(-c4nncn4C4CC4)n3)c2)cn1 [Example 166, N-(6-(4-cyclopropyl-4H-1,2,4-triazol-3-yl)pyridin-2-yl)-6-(2-hydroxypropan-2-yl)-3,4′-bipyridine-2′-carboxamide]",5
15,"O=C(Nc1cccc(-c2nncn2C2CC2)c1)c1cc(-n2cnc3ccccc32)ccn1 [Example 37, 4-(1H-benzo[d]imidazol-1-yl)-N-(3-(4-cyclopropyl-4H-1,2,4-triazol-3-yl)phenyl)picolinamide]",8
16,"O=C(Nc1cc(-c2nncn2C2CC2)ccn1)c1cc(-c2cccnc2)ccn1 [Example 164, N-(4-(4-cyclopropyl-4H-1,2,4-triazol-3-yl)pyridin-2-yl)-3,4′-bipyridine-2′-carboxamide]",18
17,"CN1CCC(n2cnnc2-c2cccc(NC(=O)c3cc(-c4ccc(C5CC5)nc4)ccn3)n2)CC1 [Example 241, 6-cyclopropyl-N-(6-(4-(1-methylpiperidin-4-yl)-4H-1,2,4-triazol-3-yl)pyridin-2-yl)-3,4′-bipyridine-2′-carboxamide]",616
18,"CNS(=O)(=O)c1ccc(-c2ccnc(C(=O)Nc3cccc(-c4nncn4C4CC4)n3)c2)cc1 [Example 111, N-(6-(4-cyclopropyl-4H-1,2,4-triazol-3-yl)pyridin-2-yl)-4-(4-(N-methylsulfamoyl)phenyl)picolinamide]",9
